# pIC50: −log10 of the molar value.
# Assays:
# [1] = from C=CCCCCC/C=C\c1cc(C(=O)NCC(=O)N2[C@H]3C[C@@]3(COCCCC=C)C[C@H]2C(=O)OCc2ccccc2)ccc1Oc1ccc(F)cc1; rcm bond; Grubbs 1st generation catalyst; DCM; 1.76 mM; 25.0 °C; 48.0 h
# [2] = biological target: T1, Human complement C1s enzyme (Homo sapiens, UniProt P09871); assay: Human C1s Enzyme Assay; assay type: biochemical; settings: human C1s 1.16 nM, 5 min preincubation, substrate Z-L-Lys-SBzl 100 μM, A405; read-out: C1s Protease Activity
# T1 construct: purified from human serum, Complement Technology, Inc; purchased Complement Technology, Inc; host or cells: human serum
# T1 sequence (P09871 438-688 limits assumed): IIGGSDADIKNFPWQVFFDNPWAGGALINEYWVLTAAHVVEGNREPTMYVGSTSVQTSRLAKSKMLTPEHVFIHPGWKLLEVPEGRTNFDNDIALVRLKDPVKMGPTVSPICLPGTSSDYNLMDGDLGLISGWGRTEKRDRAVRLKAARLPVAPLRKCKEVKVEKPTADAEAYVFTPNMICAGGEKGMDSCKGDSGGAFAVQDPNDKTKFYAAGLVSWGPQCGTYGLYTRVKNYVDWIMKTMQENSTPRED
# T1 sequence (P09871 16-437 partner limits assumed): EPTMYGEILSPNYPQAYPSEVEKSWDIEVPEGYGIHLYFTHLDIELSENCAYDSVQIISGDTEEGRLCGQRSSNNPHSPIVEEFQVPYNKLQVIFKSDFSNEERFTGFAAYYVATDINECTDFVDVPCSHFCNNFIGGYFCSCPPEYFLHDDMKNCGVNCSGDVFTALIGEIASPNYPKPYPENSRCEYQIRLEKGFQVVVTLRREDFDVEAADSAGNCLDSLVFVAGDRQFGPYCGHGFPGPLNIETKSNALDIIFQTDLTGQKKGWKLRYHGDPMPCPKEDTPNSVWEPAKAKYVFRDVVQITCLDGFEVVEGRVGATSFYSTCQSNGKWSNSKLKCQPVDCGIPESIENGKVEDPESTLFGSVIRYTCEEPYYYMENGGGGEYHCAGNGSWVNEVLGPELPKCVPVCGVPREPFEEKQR
# Outline: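 IC50 values were fitted by nonlinear regression to rates measured as A405 every 30 s for 30 min. The thioester substrate Z-L-Lys-SBzl and Ellman's reagent were each at 100 μM. Serum-derived C1s at 1.16 nM final had 5 min of room-temperature preincubation with compound (pH 7.5 Tris buffer, 1 M NaCl).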
pIC50 [2],Compound,"ring closure, yield of all isomers [1]"
> 7.00,"C[C@@H](NC(=O)[C@@H]1C[C@H](C2CCCCC2)CN1C(=O)CNC(=O)c1ccc(Oc2ccccc2)cc1)c1cc(C(=N)N)cs1 [Compound 241, (2S,4R)-N-((R)-1-(4-carbamimidoylthiophen-2-yl)ethyl)-4-cyclohexyl-1-((4-phenoxybenzoyl)glycyl)pyrrolidine-2-carboxamide]",–
> 7.00,"C[C@@H](NC(=O)[C@@H]1C[C@@H](c2ccccc2)CN1C(=O)CNC(=O)c1ccc(Oc2ccccc2)cc1)c1cc(C(=N)N)cs1 [Compound 246, (2S,4S)-N-((R)-1-(4-carbamimidoylthiophen-2-yl)ethyl)-1-((4-phenoxybenzoyl)glycyl)-4-phenylpyrrolidine-2-carboxamide]",–
< 6.00,"C[C@@]12C[C@@H]1N(C(=O)CNC(=O)c1ccc(Oc3ccccc3)cc1)[C@H](C(=O)NCc1cc(C(=N)N)c(C(F)(F)F)s1)C2 [Compound 248, (1S,3S,5S)-N-((4-carbamimidoyl-5-(trifluoromethyl)thiophen-2-yl)methyl)-5-methyl-2-((4-phenoxybenzoyl)glycyl)-2-azabicyclo[3.1.0]hexane-3-carboxamide]",–
> 7.00,"COC[C@@H]1C[C@@H](C(=O)N[C@H](C)c2cc(C(=N)N)cs2)N(C(=O)CNC(=O)c2ccc(Oc3ccccc3)cc2)C1 [Compound 253, (2S,4R)-N-((R)-1-(4-carbamimidoylthiophen-2-yl)ethyl)-4-(methoxymethyl)-1-((4-phenoxybenzoyl)glycyl)pyrrolidine-2-carboxamide]",–
< 6.00,"C[C@H](NC(=O)[C@@H]1C[C@]2(C)C[C@@H]2N1C(=O)CNC(=O)c1ccc(Oc2ccccc2)cc1)c1cc(-c2ncc[nH]2)cs1 [Compound 254, (1S,3S,5S)-N-((S)-1-(4-(1H-imidazol-2-yl)thiophen-2-yl)ethyl)-5-methyl-2-((4-phenoxybenzoyl)glycyl)-2-azabicyclo[3.1.0]hexane-3-carboxamide]",–
> 7.00,"C[C@@H](NC(=O)[C@@H]1C[C@@]23COCCCCCCCCCCCCCC(=O)N[C@@H](CCOc4ccccc4)C(=O)NCC(=O)N1[C@H]2C3)c1cc(C(=N)N)cs1 [Compound 255, (1R,19S,25S,28S)-N-((R)-1-(4-carbamimidoylthiophen-2-yl)ethyl)-17,20,23-trioxo-19-(2-phenoxyethyl)-3-oxa-18,21,24-triazatricyclo[22.2.2.0^125]octacosane-28-carboxamide]",–
< 6.00,"C[C@@H](NC(=O)[C@@H]1C[C@@]23COCCCCCCCCCCCCc4cc(ccc4Oc4ccc(F)cc4)C(=O)NCC(=O)N1[C@H]2C3)c1cc(C(=N)N)cs1 [Compound 257, (1R,26S,29S)-N-[(1R)-1-(4-carbamimidoylthiophen-2-yl)ethyl]-17-(4-fluorophenoxy)-21,24-dioxo-3-oxa-22,25-diazatetracyclo[23.2.2.1^16,^20.0^1,^26]triaconta-16,18,20(30)-triene-29-carboxamide]",–
> 7.00,"O=C(NCC(=O)N1CC2(C[C@H]1C(=O)NCc1cc(-c3ncc[nH]3)cs1)OCCO2)c1ccc(Oc2ccccc2)cc1 [Compound 259, (S)-N-((4-(1H-imidazol-2-yl)thiophen-2-yl)methyl)-7-((4-phenoxybenzoyl)glycyl)-1,4-dioxa-7-azaspiro[4.4]nonane-8-carboxamide]",–
> 7.00,"N=C(N)c1csc(CNC(=O)[C@@H]2C[C@H](C3CCCC3)CN2C(=O)CNC(=O)c2ccc(Oc3ccccc3)cc2)c1 [Compound 260, (2S,4R)-N-((4-carbamimidoylthiophen-2-yl)methyl)-4-cyclopentyl-1-((4-phenoxybenzoyl)glycyl) pyrrolidine-2-carboxamide]",–
> 7.00,"N=C(N)c1csc(CNC(=O)[C@@H]2CC3(COC3)CN2C(=O)CNC(=O)c2ccc(Oc3ccccc3)cc2)c1 [Compound 262, (S)-N-((4-carbamimidoylthiophen-2-yl)methyl)-6-((4-phenoxybenzoyl)glycyl)-2-oxa-6-azaspiro[3.4]octane-7-carboxamide]",–
> 7.00,"C[C@@H](NC(=O)[C@@H]1CC2(CN1C(=O)CNC(=O)c1ccc(C(F)(F)F)cc1)OCCO2)c1cc(C(=N)N)cs1 [Compound 263, (S)-N-((R)-1-(4-carbamimidoylthiophen-2-yl)ethyl)-7-((4-(trifluoromethyl)benzoyl)glycyl)-1,4-dioxa-7-azaspiro[4.4]nonane-8-carboxamide]",–
> 7.00,"C[C@@H](NC(=O)[C@@H]1CC2(CN1C(=O)CNC(=O)c1ccccc1)OCCO2)c1cc(C(=N)N)cs1 [Compound 264, (S)-7-(benzoylglycyl)-N-((R)-1-(4-carbamimidoylthiophen-2-yl)ethyl)-1,4-dioxa-7-azaspiro[4.4]nonane-8-carboxamide]",–

# Continued, molecule first:
Compound,pIC50 [2],"ring closure, yield of all isomers [1]"
O=C1NCC(=O)N2[C@H]3C[C@@]3(COCCCC=CCCCCC/C=C\c3cc1ccc3Oc1ccc(F)cc1)C[C@H]2C(=O)OCc1ccccc1,–,7.8%
"N=C(N)c1csc(CNC(=O)[C@@H]2C[C@H](C3CCCCC3)CN2C(=O)CNC(=O)CCCOc2ccccc2)c1 [Compound 242, (2S,4R)-N-((4-carbamimidoylthiophen-2-yl)methyl)-4-cyclohexyl-1-((4-phenoxybutanoyl)glycyl)pyrrolidine-2-carboxamide]",> 7.00,–
"C[C@@H](NC(=O)[C@@H]1C[C@H](C2CCCCC2)CN1C(=O)CNC(=O)CCCOc1ccccc1)c1cc(C(=N)N)cs1 [Compound 243, (2S,4R)-N-((R)-1-(4-carbamimidoylthiophen-2-yl)ethyl)-4-cyclohexyl-1-((4-phenoxybutanoyl)glycyl)pyrrolidine-2-carboxamide]",> 7.00,–
"N=C(N)c1csc(CNC(=O)[C@@H]2C[C@H](OC(F)(F)F)CN2C(=O)CNC(=O)c2ccc(Oc3ccccc3)cc2)c1 [Compound 244, (2S,4S)-N-((4-carbamimidoylthiophen-2-yl)methyl)-1-((4-phenoxybenzoyl)glycyl)-4-(trifluoromethoxy)pyrrolidine-2-carboxamide]",> 7.00,–
"C[C@@]12C[C@@H]1N(C(=O)CNC(=O)CCCOc1ccccc1)[C@H](C(=O)NCc1cc(C(=N)N)c(F)s1)C2 [Compound 245, (1S,3S,5S)-N-((4-carbamimidoyl-5-fluorothiophen-2-yl)methyl)-5-methyl-2-((4-phenoxybutanoyl)glycyl)-2-azabicyclo[3.1.0]hexane-3-carboxamide]",> 7.00,–
"C[C@@]12C[C@@H]1N(C(=O)CNC1(c3ccc(Oc4ccccc4)cc3)COC1)[C@H](C(=O)NCc1cc(C(=N)N)cs1)C2 [Compound 249, (1S,3S,5S)-N-[(4-carbamimidoylthiophen-2-yl)methyl]-5-methyl-2-(2-{[3-(4-phenoxyphenyl)oxetan-3-yl]amino}acetyl)-2-azabicyclo[3.1.0]hexane-3-carboxamide]",> 7.00,–
"C[C@@H](NC(=O)[C@@H]1C[C@@]23COCCC/C=C/CCCCCCCCC(=O)N[C@@H](CCOc4ccccc4)C(=O)NCC(=O)N1[C@H]2C3)c1cc(C(=N)N)cs1 [Compound 250, (1R,19S,25S,28S,E)-N-((R)-1-(4-carbamimidoylthiophen-2-yl)ethyl)-17,20,23-trioxo-19-(2-phenoxyethyl)-3-oxa-18,21,24-triazatricyclo[22.2.2.0^1,25]octacos-7-ene-28-carboxamide]",> 7.00,–
"C[C@@]12C[C@@H]1N(C(=O)CNC(=O)CCCOc1ccccc1)[C@H](C(=O)NCc1cc(C(=N)N)c(C(F)(F)F)s1)C2 [Compound 251, (1S,3S,5S)-N-((4-carbamimidoyl-5-(trifluoromethyl)thiophen-2-yl)methyl)-5-methyl-2-((4-phenoxybutanoyl)glycyl)-2-azabicyclo[3.1.0]hexane-3-carboxamide]",< 6.00,–
"C[C@@]12C[C@@H]1N(C(=O)CNC(=O)c1ccc(Oc3ccccc3)cc1)[C@H](C(=O)NCc1cc3ccnc(N)c3s1)C2 [Compound 256, (1S,3S,5S)-N-((7-aminothieno[2,3-c]pyridin-2-yl)methyl)-5-methyl-2-((4-phenoxybenzoyl)glycyl)-2-azabicyclo[3.1.0]hexane-3-carboxamide]",< 6.00,–
"C[C@@]12C[C@@H]1N(C(=O)CNC(=O)c1ccc(Oc3ccccc3)cc1)[C@H](C(=O)NC1CCc3c(C(=N)N)csc3C1)C2 (stereo partly drawn) [Compound 258, (1S,3S,5S)-N-(3-carbamimidoyl-4,5,6,7-tetrahydrobenzo[b]thiophen-6-yl)-5-methyl-2-((4-phenoxybenzoyl)glycyl)-2-azabicyclo[3.1.0]hexane-3-carboxamide]",< 6.00,–
"N=C(N)c1csc(CNC(=O)C2CC3(CCC3)CN2C(=O)CNC(=O)CCCOc2ccccc2)c1 (centres unmarked) [Compound 261, N-((4-carbamimidoylthiophen-2-yl)methyl)-6-((4-phenoxybutanoyl)glycyl)-6-azaspiro[3.4]octane-7-carboxamide]",> 7.00,–

# Source: patent publication US20250171423A1, “PHARMACEUTICAL COMPOUNDS FOR THE TREATMENT OF COMPLEMENT MEDIATED DISORDERS” (Achillion Pharmaceuticals, Inc., priority 2020, published 2025)
